Patent publication US20190192485A1, “DOSAGE REGIMEN FOR THE TREATMENT OF ENDOMETRIOSIS” (MEREO BIOPHARMA 2 LIMITED, priority 2016, published 2019)
Converted amounts (≈) assume the structure as drawn.

Columns and labels:
[1] = Single 1.0 mg dose with combined oral contraceptive in premenopausal women (PK interaction, safety)
Experimental: The study consisted of a 49-day screening period and four consecutive 28-day (menstrual) cycles.
For the combined oral contraceptive, 30 μg of ethinyl estradiol and 0.15 mg of levonorgestrel (Seasonique®) was used. Seasonique® is an oral contraceptive designed and approved for daily administration. The 84 blue-green tablets (30-μg ethinyl estradiol and 0.15 mg levonorgestrel) are packaged with seven yellow tablets containing 10-μg ethinyl estradiol to eliminate the hormone free interval.

[2] = tested on: estrone, estrone sulfate and estradiol; experiment: Single ascending dose study in women: PD (estrogen suppression); format: in vivo, human
Source text: (§1) A minimal toxic dose (MTD) was not reached. […] Table 3 presents the PK parameters based on analysis of the concentration-time profile obtained from this study.

[3] = Toxicologic studies in dogs: plasma exposure after single and weekly oral dosing; format: in vivo
Source text: (§2) Generally, the inter-animal variability in Cmax levels was small.

[4] = Single ascending dose study in pre- and post-menopausal women: safety, tolerability and PK; format: in vivo, human; details: for AUC(0-tlast) Mean / Cmax Mean / T1/2 Mean / Tmax Median: po
Source text: The drug concentration in plasma and/or serum samples can be determined by a number of different ways, e.g. HPLC or LC-MS/MS analyses. […]
as §1

aromatase [5] = target: T1, aromatase (Homo sapiens, UniProt P11511); experiment: Low dose study in obese men with low testosterone, with PK/PD analyses of aromatase inhibition; format: in vivo
T1 construct: high levels of aromatase in the adipose tissue; from tissue; host or cells: in vivo, human subjects (aromatase of adipose tissue)
T1 sequence (P11511 1-503): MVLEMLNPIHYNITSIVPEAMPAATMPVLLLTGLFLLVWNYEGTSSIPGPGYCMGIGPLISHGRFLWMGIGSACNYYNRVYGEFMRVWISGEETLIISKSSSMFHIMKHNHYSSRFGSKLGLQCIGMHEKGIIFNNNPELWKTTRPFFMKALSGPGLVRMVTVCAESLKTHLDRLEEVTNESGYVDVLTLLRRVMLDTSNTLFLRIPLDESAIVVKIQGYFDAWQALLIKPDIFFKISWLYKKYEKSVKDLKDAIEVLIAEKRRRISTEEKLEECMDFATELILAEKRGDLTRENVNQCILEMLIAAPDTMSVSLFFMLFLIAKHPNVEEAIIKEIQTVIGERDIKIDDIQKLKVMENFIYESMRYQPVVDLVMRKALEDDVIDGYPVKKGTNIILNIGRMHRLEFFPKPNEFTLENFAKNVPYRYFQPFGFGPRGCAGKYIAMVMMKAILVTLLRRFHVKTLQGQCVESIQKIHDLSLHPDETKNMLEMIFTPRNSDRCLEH

aromatase [6] = target: T2, aromatase (Rattus norvegicus, UniProt P22443); details: once weekly administration, adult female rats; cited from earlier work
T2 construct: achieving medical castration in adult female rats; from tissue; host or cells: in vivo, adult female rats
T2 sequence (P22443 1-508): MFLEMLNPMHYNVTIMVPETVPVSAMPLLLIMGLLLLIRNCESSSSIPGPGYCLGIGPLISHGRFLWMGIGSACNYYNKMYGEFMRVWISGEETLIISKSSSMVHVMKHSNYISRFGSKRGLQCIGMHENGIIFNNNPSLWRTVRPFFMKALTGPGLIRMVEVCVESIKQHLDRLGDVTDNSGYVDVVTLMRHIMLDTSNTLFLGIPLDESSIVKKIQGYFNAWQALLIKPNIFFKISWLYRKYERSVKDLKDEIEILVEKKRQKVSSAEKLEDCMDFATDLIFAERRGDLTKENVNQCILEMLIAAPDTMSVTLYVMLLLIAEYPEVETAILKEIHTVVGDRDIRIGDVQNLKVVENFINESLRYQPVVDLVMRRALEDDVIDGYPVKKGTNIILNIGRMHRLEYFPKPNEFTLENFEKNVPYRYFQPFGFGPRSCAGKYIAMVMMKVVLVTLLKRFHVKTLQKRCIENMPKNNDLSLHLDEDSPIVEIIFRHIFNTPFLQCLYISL

testosterone levels = experiment: Serum testosterone levels in male dogs after 1, 4 and 12 weeks of dosing; format: in vivo; details: all dose levels
Source text: as §2

[7] = Tissue (fat) biopsy concentration versus plasma; format: in vivo; details: human fat biopsies, read-out: concentration in tissue (fat) relative to plasma/blood
aromatase [8] = target: T1, aromatase; details: microsomal fraction of human placenta; cited from earlier work
[9] = female, human, in vivo, 0.01 mg
[10] = female, human, in vivo, 0.03 mg

SMILES: C#C[C@]1(O)CC[C@H]2[C@@H]3CCC4=CC(=O)CC[C@@H]4[C@H]3CC[C@@]21CC [levonorgestrel, reference compound]
- steady state pharmacokinetic profile with 1 mg CGP47645 versus placebo ([1]; Day 29, surgically sterile healthy premenopausal women, COC 30 μg ethinyl estradiol and 0.15 mg levonorgestrel): similar

SMILES: N#Cc1ccc(C(F)(c2ccc(C#N)cc2)n2cncn2)cc1 [CGP47645, 4,4′-[fluoro-(1-H-1,2,4-triazol-1-yl)methylene]bisbenzonitrile]
- lowest single dose at which maximal estrogen suppression was observed ([2]; post-menopausal women, chemiluminescence or radioimmunoassay): 0.1 mg
- lowest single dose at which transient estrogen suppression was seen ([2]; postmenopausal women): 0.01 mg
- estrone suppression compared with letrozole ([2]; postmenopausal women, doses of 0.1 mg and 0.3 mg): at least equal to letrozole
- inhibition of estrone, estrone sulfate and estradiol ([2]; women, single ascending doses): dose-dependent inhibition
- difference in exposure (AUC and Cmax) between male and female dogs ([3]; dogs): no consistent difference
- drug accumulation ([3]; dogs, weekly oral dosing for 4 or 22 weeks versus single dose): no drug accumulation
- increase in exposure (AUC and Cmax) with dose ([3]; male and female dogs, single and multiple doses, all dose levels): generally proportional to the dose increase
- inter-subject variability ([4]; female, human, in vivo): 10-30%
- Tmax ([4]; female, human, in vivo, Tmax): 0.5 to 2 h
- Tmax ([4]; female, human, in vivo, median Tmax): ≤ 1 h
- AUC(0-tlast) Mean [4, 9]: 1.4 ng·h/mL
- Cmax Mean [4, 9]: 0.2 ng/mL
- T1/2 Mean [4, 9]: 55.2 h
- Tmax Median [4, 9]: 1 h
- AUC(0-tlast) Mean [4, 10]: 24.1 ng·h/mL
- Cmax Mean [4, 10]: 0.4 ng/mL
- T1/2 Mean [4, 10]: 396 h
- AUC(0-tlast) Mean ([4]; female, human, in vivo, 0.1 mg): 116.2 ng·h/mL
- Cmax Mean ([4]; female, human, in vivo, 0.1 mg): 1.7 ng/mL
- T1/2 Mean ([4]; female, human, in vivo, 0.1 mg): 564 h
- Tmax Median ([4]; female, human, in vivo, 0.1 mg): 1 h
- Tmax Median ([4]; female, human, in vivo, 0.3 mg): 1 h
- Tmax Median ([4]; female, human, in vivo, 1 mg): 1 h
- Tmax Median ([4]; female, human, in vivo, 3 mg): 1 h
- dose dependence of half-life ([4]; human, in vivo): directly dose dependent
- dose proportionality of Cmax and AUC ([4]; human, in vivo): increased in a dose-proportional manner
- difference in pharmacokinetics between post- and pre-menopausal women ([4]; in vivo): No differences
- minimal toxic dose (MTD) ([4]; single doses 0.01 mg through 20 mg, post-menopausal women): not reached
- average estimated IC40 for aromatase inhibition (aromatase [5]; PK/PD analyses, plasma concentration): 0.03 ng/mL
- IC90 (aromatase [5]; PK/PD analyses, plasma concentration, read-out: average estimated IC90 for aromatase inhibition): 0.27 ng/mL (≈ 0.89 nM)
- lowest dose with effects on the aromatase-testosterone-estradiol pathway (aromatase [5]; females and males with obesity-associated hypogonadotropic hypogonadism, blood levels below IC50): 0.003 mg
- effective dose achieving medical castration (aromatase [6]): 3 mg/kg
- safety of co-administration with continuously dosed COC ([1]; in vivo): may be co-administered safely
- pharmacokinetic parameters with COC compared with single ascending dose study without COC ([1]; in vivo, po): similar
- serum testosterone levels (testosterone levels): dramatically elevated testosterone levels
- Kp [7]: ≤ 10
- mode of aromatase inhibition (aromatase [8]): competitive inhibitor
